How the values were obtained:
[1] = tested on: A431 parent cells, A5A and A10A cells; experiment: Response of A431 sublines to doxorubicin by MTT assay; type: cell-based, human; conditions: A431/A5A and A10A cells versus A431 parent cells; incubated with drug for 5 days; FIG. 1
Procedure: Responses of A431 parent cells, A5A and A10A cells to doxorubicin (DOX) were compared in this Example.
A431/A5A cells were A431 cells survived from treatment with 5 μg/ml of DOX, and A10A cells were derived from A5A cells survived from treatment with 10 μg/ml of DOX.
Cells were seeded in 96-well plates for 2 days and incubated with various concentrations of DOX for 5 days. At the end of the incubation, the cells were incubated in 50 μl of a 0.1 mg/ml solution of 3-[4,5-dimethylthiaol-2-yl]-2,5-diphenyltetrazolium bromide (MTT) at 37° C. for 3 h and lysed in 150 μl of dimethyl sulfoxide at room temperature for 30 min. The absorbance of each well was measured at 580 nm in a microplate reader. The survival percentage of cells was calculated as the ratio between cells with drug treatment and cells without drug treatment.

[2] = tested on: stable CUDR transfectant of A431 cells; experiment: Response of stable CUDR transfectants of A431 cells to DOX and Taxol by MTT assay; type: cell-based, human; conditions: CUDR transfectants versus A431 cells transfected with empty vector; drug for 5 days; FIGS. 5A and 5C
Procedure: (§1) A431 cells were transfected with a vector carrying the full-length CUDR cDNA or an empty vector. After transfection, the cells were selected with G418 and individual colony was picked for establishment as stable transfectants. The stable transfectants were maintained in culture supplemented with G418. The response of cells to drugs was measured by both MTT assay and DNA fragmentation assay.
For the MTT assay, the cells were seeded in a 96-well plate for 2 days and incubated with various concentrations of DOX or Taxol for 5 days. At the end of the incubation, the cells were incubated with 50 μl of a 0.1 mg/ml solution of 3-[4,5-dimethylthiaol-2-yl]-2,5-diphenyltetrazolium bromide (MTT) at 37° C. for 3 h and lysed in 150 μl of dimethyl sulfoxide at room temperature for 30 min. The absorbance of each well was measured at 580 nm in a microplate reader. The percentage of cell survival was calculated as the ratio between cells with drug treatment and cells without drug treatment. The MTT results for DOX and Taxol were shown in FIGS. 5A and 5C respectively. ◯: control cells, i.e. A431 cells transfected with empty vector; ▴: stable CUDR transfectant of A431 cells. Error bar: standard deviation.

[3] = tested on: stable CUDR transfectant of A431 cells; experiment: DNA fragmentation assay (apoptotic response) in stable CUDR transfectants of A431 cells; type: cell-based, human; conditions: CUDR transfectants versus A431 cells transfected with empty vector; drug for 3 days; FIGS. 5B and 5D
Procedure: as §1
DNA fragmentation assay, one of the common methods, was conducted to assess the apoptotic response of cells upon treatment with anticancer drug. The cells were seeded in 60 mm Petri dish for 2 days and then exposed to various concentrations of DOX or Taxol for 3 days. After incubation, the cells were lysed in lysis buffer containing Tris-HCl, SDS, EDTA and protease K and incubated at 45° C. for 2 h. After phenol/chloroform extraction, DNA was precipitated with sodium acetate and 100% ethanol. After overnight digestion with RNase A at 37° C., 40 μg of the DNA sample were separated on 1.5% EtBr staining agarose gel. The DNA fragmentation pattern was viewed with UV light box. The presence of the “DNA laddering” pattern indicates the induction of apoptosis in cells; the more extensive the laddering pattern, the more significant the apoptosis induction. AN: control cells, A431 cells transfected with an empty vector; AG: stable CUDR transfectant of A431 cells; and M: 100 bp marker.

[4] = tested on: Human squamous carcinoma A431 cells; experiment: Doxorubicin sensitivity of A431 cells after transfection with full-length CUDR or CUDR antisense oligonucleotides (MTT assay); type: cell-based; conditions: plasmid 24 h or oligonucleotides 4 h, then DOX for 48 h
Procedure: The role of CUDR in sensitivity of cells to doxorubicin was examined. Human squamous carcinoma A431 cells were transfected with either plasmid carrying the full-length CUDR cDNA or antisense oligonucleotides of CUDR. The cells were seeded in a 96-well plate for 4 h before incubation with full-length CUDR plasmid DNA for 24 h or CUDR oligonucleotides for 4 h. After transfection, the cells were incubated with DOX for 48 h. The cell survival was measured by MTT assay. Furthermore, the CUDR mRNA level after transfection was examined by Northern blot analysis.
In FIG. 4A, ---o--- (C): cells without transfection; -▪- (CUDR): cells transfected with full length CUDR. In FIG. 4B, ---o--- (C): Cells without transfection treatment; -●- (S): transfection with sense CUDR oligonucleotides; -▪- (AS): transfection with CUDR antisense oligonucleotides.
Antisense sequence for CUDR was: 5′-[…]-3′ (nt1347-1367) (SEQ ID NO:9) and the sequence for the sense oligonucleotides was complementary to that of the antisense.

Row | Molecule | response of cells to drug (survival percentage of cells) [1] | response of cells to drug (percentage of cell survival) [2] | apoptotic response of cells upon drug treatment (DNA laddering) [3] | effect of transfection on doxorubicin sensitivity of cells (cell survival) ([4]; FIG. 4) | effect of transfection on doxorubicin sensitivity of cells (cell survival) ([4]; FIG. 4, listed as antisense CUDR nucleic acids)
1 | COc1cccc2c1C(=O)c1c(O)c3c(c(O)c1C2=O)C[C@@](O)(C(=O)CO)C[C@@H]3O[C@H]1C[C@H](N)[C@H](O)[C@H](C)O1 [DOX, doxorubicin] | more resistant | more resistant | more refractory to the apoptosis | – | –
2 | CC(=O)O[C@H]1C(=O)[C@@]2(C)[C@H]([C@H](OC(=O)c3ccccc3)[C@]3(O)C[C@H](OC(=O)[C@H](O)[C@@H](NC(=O)c4ccccc4)c4ccccc4)C(C)=C1C3(C)C)[C@]1(OC(C)=O)CO[C@@H]1C[C@@H]2O [Taxol] | – | more resistant | more refractory to the apoptosis | – | –
3 | antisense CUDR oligonucleotides: Antisense sequence for CUDR: 5′-CAAGGTGCCAGTTAGCGTAT-3′ (nt1347-1367) (SEQ ID NO:9) (listed as DNA, chemistry not given here) | – | – | – | increased the DOX sensitivity of cells | increase the drug sensitivity of cancer cells

Source: patent US8163476B2, “CUDR as biomarker for cancer progression and therapeutic response” (The Chinese University of Hong Kong, priority 2004, dated 2012)
